According to US20210238197A1, “NOVEL OXOQUINOLIZINE COMPOUNDS FOR THE TREATMENT AND PROPHYLAXIS OF BACTERIAL INFECTION” (Hoffmann-La Roche Inc., priority 2018, published 2021):
In brackets after ≈: the same amount, converted by molar mass. Where two headings read alike, the source gives them in different places.

Key:
S. aureus (ATCC29213) = experiment: 50% growth inhibitory concentration (IC50) determination assay, S. aureus; assay type: cell-based; conditions: Staphylococcus aureus, ATCC29213; Iso-Sensitest broth, growth by OD 600 nm over 16 h; <0.098 = detection limit
Procedure: (§1) The in vitro antimicrobial activity of the compounds against S. aureus (ATCC29213), K. pneumoniae (ATCC10031), and A. baumannii (ATCC17978), was determined according to the following procedure: The assay used a 10-points Iso-Sensitest broth medium to measure quantitatively the in vitro activity of the compounds against S. aureus ATCC29213, K. pneumoniae ATCC 10031, and A. baumannii ATCC17978. Stock compounds in DMSO were serially two-fold diluted (range from 50 to 0.097 μM final concentration) in 384 wells microtiter plates and inoculated with 49 μL the bacterial suspension in Iso-Sensitest broth medium to have a final cell concentration of ˜5×10^5 CFU/mL in a final volume/well of 50 μL/well. Microtiter plates were incubated at 35±2° C. Bacterial cell growth was determined with the measurement of optical density at λ=600 nm each 20 minutes over a time course of 16 h.

[1] = test system: K. pneumoniae (ATCC10031); experiment: 50% growth inhibitory concentration (IC50) determination assay, K. pneumoniae; assay type: cell-based; conditions: Klebsiella pneumoniae, ATCC10031; Iso-Sensitest broth, growth by OD 600 nm over 16 h; <0.098 = detection limit
Procedure: as §1

A. baumannii (ATCC17978) = experiment: 50% growth inhibitory concentration (IC50) determination assay, A. baumannii; assay type: cell-based; conditions: Acinetobacter baumannii, ATCC17978; Iso-Sensitest broth, growth by OD 600 nm over 16 h; <0.098 = detection limit
Procedure: as §1

[2] = test system: multiple species and strains; experiment: microbe, parasite or virus in culture; set-up: MIC S9 / MIC S7 / MIC S11 / MIC S8 / MIC S10: unit not given beside the values; conditions: for MIC S9: E. coli ATCC 35218
Procedure: The MIC of antibacterial compounds against multiple species and strains was determined using the broth microdilution method according to M07-A10 Clinical and Laboratory Standards Institute (CLSI) guidelines (CLSI (2015) Methods for dilution antimicrobial susceptibility tests for bacteria that grow aerobically; Approved Standard, Tenth Edition. CLSI Document M7-A10 (ISBN 1-56238-987-4). Wayne, Pa.: Clinical and Laboratory Standards Institute, 19087, USA.). In short, bacterial strain preparation was performed on D1 and D2. […] 5-10 well-isolated colonies of similar morphology were selected and re-streaked onto fresh agar plates using sterile loops and incubated for 20-24 hr at 35±2° C. Bacterial strains were subcultured two times to ensure fresh inoculums for MIC screening. […] Alternatively, 1-2 colonies were transferred into 500 μL of saline and OD600 was adjusted to ˜0.1 using an OD meter. Bacterial inoculum was diluted by 1:280 for Gram-positive strains and 1:400 for Gram-negative strains into corresponding medium broth (CAMHB, CAMHB+3% lysed horse blood, HTM) (e.g. 35.6 μL of inoculum into 10 mL of CAMHB or 25 μL of inoculum into 10 mL of CAMHB). For compound plate, the compound stock solutions were prepared in 100% DMSO on the day of MIC screening and used immediately. Compound stock concentration=[(highest testing concentration)×100 μL/2 μL] (e.g. if the required highest testing concentration is 64 μg/mL in assay plates, stock concentration=64 μg/mL×100 μL/2 μL=3.2 mg/mL). […] 1 μL of each well was transferred in a new MTP, which served as the test plate by subsequent inoculation. The bacterial suspension prepared above is dispensed at 98 μL/well within 15 minutes after preparation. Negative controls (lack of bacterial cells) and growth control wells (lack of compound) were included in all plates. MTPs were incubated for 18-24 hours at 35±2° C. in ambient air. The MIC was recorded and CFUs were calculated on Day 4. The assay plate was placed on the top of MIC reader, and the magnification mirror was adjusted to read each wells, recording growth status as raw data. Photo images of each assay plates were recorded using Q Count 530 (Spiral Biotech). The MIC value of each compound, expressed as μg/mL, was determined as the lowest concentration required for complete growth inhibition (no visible growth).

[3] = Acinetobacter baumannii, ATCC19606, read-out: MIC S1, A. baumannii ATCC 19606
[4] = Acinetobacter baumannii, ATCC51432, read-out: MIC S2, A. baumannii ATCC 51432
[5] = Acinetobacter baumannii, ATCCBAA747, read-out: MIC S3, A. baumannii ATCC BAA-747
[6] = Escherichia coli, ATCC25922, read-out: MIC S11, E. coli ATCC 25922
[7] = Escherichia coli, ATCCBAA2340, read-out: MIC S10, E. coli ATCC BAA-2340
[8] = Klebsiella pneumoniae, ATCC10031, read-out: MIC S4, K. pneumoniae ATCC 10031
[9] = Klebsiella pneumoniae, ATCC700603, read-out: MIC S5, K. pneumoniae ATCC 700603
[10] = Klebsiella pneumoniae, ATCCBAA2146, read-out: MIC S6, K. pneumoniae ATCC BAA-2146
[11] = Pseudomonas aeruginosa, ATCC27853, read-out: MIC S7, P. aeruginosa ATCC 27853
[12] = Pseudomonas aeruginosa, ATCCBAA2113, read-out: MIC S8, P. aeruginosa ATCC BAA-2113

Compound	IC50 (S. aureus (ATCC29213)) [µM]	IC50 [1] [µM]	IC50 (A. baumannii (ATCC17978)) [µM]	MIC [2, 3] [mg/L]	MIC [2, 4] [mg/L]	MIC [2, 5] [mg/L]	MIC S9 [2]	MIC [2, 6] [mg/L]	MIC [2, 7] [mg/L]	MIC [2, 8] [mg/L]	MIC [2, 9] [mg/L]	MIC [2, 10] [mg/L]	MIC [2, 11] [mg/L]	MIC [2, 12] [mg/L]
CNc1cc(F)c(C#N)c2c1[nH]c1ncc(-c3ccc4ccc(C(=O)O)c(=O)n4c3)c(N(C)C)c12 [Example 1.18, 7-[5-cyano-4-(dimethylamino)-6-fluoro-8-(methylamino)-9H-pyrido[2,3-b]indol-3-yl]-4-oxo-quinolizine-3-carboxylic acid]				0.092 (≈ 0.196 µM)	0.367 (≈ 0.78 µM)	0.184 (≈ 0.391 µM)	0.046	0.551 (≈ 1.17 µM)	0.046 (≈ 0.0978 µM)	0.046 (≈ 0.0978 µM)	0.092 (≈ 0.196 µM)	0.735 (≈ 1.56 µM)	0.367 (≈ 0.78 µM)	0.184 (≈ 0.391 µM)
CNc1cc(F)c(F)c2c1[nH]c1ncc(-c3cc(C)c4ccc(C(=O)O)c(=O)n4c3)c(N(C)C)c12 [Example 1.20, 7-[4-(dimethylamino)-5,6-difluoro-8-(methylamino)-9H-pyrido[2,3-b]indol-3-yl]-9-methyl-4-oxo-quinolizine-3-carboxylic acid]				0.187 (≈ 0.392 µM)	1.49 (≈ 3.12 µM)	0.746 (≈ 1.56 µM)	0.559	0.42 (≈ 0.88 µM)	0.559 (≈ 1.17 µM)	0.187 (≈ 0.392 µM)	1.49 (≈ 3.12 µM)	2.98 (≈ 6.25 µM)	2.98 (≈ 6.25 µM)	2.24 (≈ 4.69 µM)
CNc1cc(F)c(F)c2c1[nH]c1ncc(-c3ccc4ccc(C(=O)O)c(=O)n4c3)c(N3CCC(C4(N)CC4)C3)c12 (stereo not drawn) [Example 1.21, 7-[4-[3-(1-aminocyclopropyl)pyrrolidin-1-yl]-5,6-difluoro-8-(methylamino)-9H-pyrido[2,3-b]indol-3-yl]-4-oxo-quinolizine-3-carboxylic acid]				0.603 (≈ 1.11 µM)	1.21 (≈ 2.22 µM)	1.21 (≈ 2.22 µM)	0.603	0.34 (≈ 0.624 µM)	0.302 (≈ 0.555 µM)	0.038 (≈ 0.0698 µM)	4.83 (≈ 8.87 µM)	4.83 (≈ 8.87 µM)	1.21 (≈ 2.22 µM)	2.41 (≈ 4.43 µM)
CNc1cc(F)c(F)c2c1[nH]c1ncc(-c3ccc4ccc(C(=O)O)c(=O)n4c3)c(N3C[C@@H]4CCN(C)[C@@H]4C3)c12 [Example 3.03B, 7-[4-[(3aS,6aS)-1-methyl-2,3,3a,4,6,6a-hexahydropyrrolo[3,4-b]pyrrol-5-yl]-5,6-difluoro-8-(methylamino)-9H-pyrido[2,3-b]indol-3-yl]-4-oxo-quinolizine-3-carboxylic acid]	< 0.098	< 0.098	< 0.098											

Continued, in another order:

IC50 (S. aureus (ATCC29213)) [µM]	IC50 [1] [µM]	IC50 (A. baumannii (ATCC17978)) [µM]	Compound	MIC [2, 3] [mg/L]	MIC [2, 4] [mg/L]	MIC [2, 5] [mg/L]	MIC S9 [2]	MIC [2, 6] [mg/L]	MIC [2, 7] [mg/L]	MIC [2, 8] [mg/L]	MIC [2, 9] [mg/L]	MIC [2, 10] [mg/L]	MIC [2, 11] [mg/L]	MIC [2, 12] [mg/L]
< 0.098	< 0.098	< 0.098	CNc1cc(F)c(F)c2c1[nH]c1ncc(-c3ccc4ccc(C(=O)O)c(=O)n4c3)c(N3CC4[C@H](CC[C@@H]4N(C)C)C3)c12 (stereo partly drawn) [Example 1.09, 7-[4-[cis-(4S)-4-(dimethylamino)-3,3a,4,5,6,6a-hexahydro-1H-cyclopenta[c]pyrrol-2-yl]-5,6-difluoro-8-(methylamino)-9H-pyrido[2,3-b]indol-3-yl]-4-oxo-quinolizine-3-carboxylic acid]											
< 0.098	< 0.098	< 0.098	CNc1cc(F)c(F)c2c1[nH]c1ncc(-c3ccc4ccc(C(=O)O)c(=O)n4c3)c(N3C[C@@H]4[C@H](C3)[C@H]4N(C)C)c12 [Example 1.13, 7-(4-((1R,5S,6S)-6-(dimethylamino)-3-azabicyclo[3.1.0]hexan-3-yl)-5,6-difluoro-8-(methylamino)-9H-pyrido[2,3-b]indol-3-yl)-4-oxo-4H-quinolizine-3-carboxylic acid]											
